System: α-Glucosidase enzyme (from Saccharomyces cerevisiae)
Test: α-glucosidase inhibitory assay (p-NPG substrate, spectrophotometric)
Type: biochemical
Conditions: mean SD (n = 3); for Inhibition (%): tested concentration of all samples 100 μM; for IC50: α-glucosidase, p-NPG substrate
Description: A total of 200 μL of reaction mixture, containing 70 μL of 0.1 M phosphate buffer (pH 6.8), 10 μL of 1.0 mg/mL reduced glutathione solution, and 10 μL of the sample solution (test concentration at 0.1 mg/mL), was added to each well of a 96-well plate, followed by the addition of 20 μL of 0.5 U/mL α-glucosidase solution. The plate was incubated at 37 °C for 15 min, and then 20 μL of p-Nitrophenyl α-D-glucopyranoside substrate was added to the mixture to start the reaction. The reaction mixture was incubated at 37 °C for 30 min, and then 70 μL of 0.1 M Na2CO3 solution was added to the mixture to terminate the reaction. All samples were analyzed in triplicate with three different concentrations near the IC50 values. The absorbance (A) was immediately recorded at 400 nm, using a spectrophotometrical method to estimate the enzymatic activity. The inhibition percentage was calculated by the following equation: Inhibitory rate (%) = [1 − (Atest − Ablank)/(control Atest − control Ablank)] × 100%.
Here, Atest represents the absorbance value of the experimental sample, Ablank represents the absorbance value of sample blank, control Atest represents the absorbance value of the control, and control Ablank represents the absorbance value of the blank.

## CC1C(COO)=CCC2(C)CCC3(C)C(CCC4C5(C)CCC(O)C(C)(C)C5CCC43C)C12 (stereo not drawn) [Compound 1, 3β-hydroxy-30-hydroperoxy-20-taraxastene]
  Inhibition (%): 99.46 ± 1.04%
  IC50: 18.3 ± 1.27 µM

## C[C@H]1O[C@H](O[C@H]2[C@H](O)[C@@H](O)[C@@H](O[C@H]3[C@H](O)[C@@H](O)C(O)O[C@@H]3CO)O[C@@H]2CO)[C@H](O)[C@@H](O)[C@@H]1N[C@H]1C=C(CO)[C@@H](O)[C@H](O)[C@H]1O (some centres unmarked) [Acarbose, acarbose, reference compound]
  Inhibition (%): 78.35 ± 3.41%

## COC1C=C(C)C(C)C2C3CCC4C5(C)CCC(O)C(C)(C)C5CCC4(C)C3(C)CCC12C (stereo not drawn) [Compound 2, 3β-hydroxy-22α-methoxy-20-taraxastene]
  Inhibition (%): 93.29 ± 0.74%
  IC50: 27 ± 0.89 µM

## CC1=CC(=O)C2(C)CCC3(C)C(CCC4C5(C)CCC(O)C(C)(C)C5CCC43C)C2C1C (stereo not drawn) [Compound 7, 3β-hydroxy-20-taraxasten-22-one]
  Inhibition (%): 95.59 ± 2.34%
  IC50: 22.7 ± 0.25 µM

## CC1=CC(=O)[C@]2(C)CC[C@]3(C)[C@H](CCC4[C@@]5(C)CCC(=O)C(C)(C)C5CC[C@]43C)C2[C@@H]1C (some centres unmarked) [Compound 5, 20-taraxastene-3,22-dione]
  Inhibition (%): 60.78 ± 5.81%
  IC50: 68.9 ± 1.82 µM

## CC1=CC(O)C2(C)CCC3(C)C(CCC4C5(C)CCC(O)C(C)(C)C5CCC43C)C2C1C (stereo not drawn) [Compound 4, 3β,22α-dihydroxy-20-taraxastene]
  Inhibition (%): 94.95 ± 1.67%
  IC50: 17.5 ± 1.42 µM

## C[C@@H]1C=C[C@H](O)[C@]2(C)CC[C@]3(C)[C@H](CCC4[C@@]5(C)CC[C@H](O)C(C)(C)C5CC[C@]43C)C12 (stereo partly drawn) [Compound 3, 30-nor-3β,22α-dihydroxy-20-taraxastene]
  Inhibition (%): 70.34 ± 2.73%
  IC50: 44.6 ± 1.39 µM

## CC(=O)O[C@H]1CC[C@@]2(C)C(CC[C@]3(C)C2CC[C@@H]2C4[C@H](C)C(C)=CC(=O)[C@]4(C)CC[C@]23C)C1(C)C (stereo partly drawn) [Compound 6, 3β-acetoxy-20-taraxasten-22-one]
  Inhibition (%): 63.06 ± 7.44%
  IC50: 54.2 ± 2.25 µM

## C[C@@H]1C=CC[C@]2(C)CC[C@]3(C)[C@H](CCC4[C@@]5(C)CC[C@H](O)C(C)(C)C5CC[C@]43C)C12 (stereo partly drawn) [Compound 8, 30-nor-3β-hydroxy-20-taraxastene]
  Inhibition (%): 59.19 ± 3.81%
  IC50: 80.1 ± 2.13 µM
